Measured values from PubChem BioAssay (NCI).
Where “and” joins values, the source holds several entries; their conditions need not be identical. Identical values can stand only once.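 Method: 48-hour compound exposure of cells in 96-well plates, five concentrations, linear interpolation of endpoints. The concentration for 50% growth inhibition is given as GI50. At the TGI there is no net growth.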

Experiments:
Test in all cases: NCI anticancer screen, dose series, 48 h
BT-549 breast = system: BT-549 breast
HCT-116 colon = system: HCT-116 colon
HCT-15 colon = system: HCT-15 colon
IGROV1 ovarian = system: IGROV1 ovarian
MALME-3M melanoma = system: MALME-3M melanoma
NCI-H522 lung = system: NCI-H522 lung
NCI/ADR-RES ovarian = system: NCI/ADR-RES ovarian
OVCAR-3 ovarian = system: OVCAR-3 ovarian
SF-268 CNS = system: SF-268 CNS
SK-MEL-28 melanoma = system: SK-MEL-28 melanoma

SMILES | GI50 (BT-549 breast) | TGI (BT-549 breast) | GI50 (HCT-116 colon) | TGI (HCT-116 colon) | GI50 (HCT-15 colon) | TGI (HCT-15 colon) | GI50 (IGROV1 ovarian) | TGI (IGROV1 ovarian) | GI50 (MALME-3M melanoma) | TGI (MALME-3M melanoma) | GI50 (NCI-H522 lung) | TGI (NCI-H522 lung) | GI50 (NCI/ADR-RES ovarian) | TGI (NCI/ADR-RES ovarian) | GI50 (OVCAR-3 ovarian) | TGI (OVCAR-3 ovarian) | GI50 (SF-268 CNS) | TGI (SF-268 CNS) | GI50 (SK-MEL-28 melanoma) | TGI (SK-MEL-28 melanoma)
CCCCC(CCCCCC(CCCC)NCc1ccc2c(c1)OCO2)NCc1ccc2c(c1)OCO2 (stereo not drawn) | 1.48 µM | 3.06 µM | 0.194 µM | 0.369 µM | 0.326 µM | 1.09 µM | 0.887 µM | 2.22 µM | 1.09 µM | 2.56 µM | 0.604 µM | 1.27 µM | 0.711 µM | 1.93 µM | 0.936 µM | 2.25 µM | 0.905 µM | 2.22 µM | 0.188 µM | 0.337 µM
O=C(O)[C@H](Cc1c[nH]c2ccccc12)N1C(=O)c2ccccc2C1=O | – | > 100 µM | – | > 100 µM | – | > 100 µM | > 100 µM | > 100 µM | – | > 100 µM | – | > 100 µM | – | > 100 µM | – | > 100 µM | – | > 100 µM | – | > 100 µM
COC(=O)c1ccc2c(c1)C(=O)c1c-2n(CCCCl)c(=O)c2cc([N+](=O)[O-])ccc12 | 44.4 µM | > 100 µM | 42.1 µM | > 100 µM | > 100 µM | > 100 µM | 34.9 µM | > 100 µM | > 100 µM | > 100 µM | 51 µM | > 100 µM | > 100 µM | > 100 µM | 96.6 µM | > 100 µM | 42.2 µM | > 100 µM | > 100 µM | > 100 µM
C=C1CC2(CC(c3ccccc3Cl)OC(c3ccccc3Cl)C2)OC1=O (stereo not drawn) | – | 4.59 µM | – | 3.17 µM | – | 5.58 µM | – | 4.62 µM | – | 8.19 µM | – | 3.3 µM | – | 8.55 µM | – | 5.96 µM | – | 5.62 µM | – | 3.65 µM
O=C(CCl)NCCNc1nccc(Nc2ccc(S(=O)(=O)Nc3ccccn3)cc2)n1 | 2.32 µM | 13.9 µM | 1.54 µM | 5.53 µM | 1.62 µM | 4.38 µM | 2.12 µM | 6.72 µM | 2.3 µM | 10.5 µM | 1.61 µM | 3.98 µM | 2.96 µM | 83.2 µM | 1.77 µM | 6.17 µM | 2.63 µM | 12.9 µM | 2.97 µM | 13.5 µM
CN(CCCCCl)P(=O)(OCCS(=O)(=O)CC(NC(=O)CCC(N)C(=O)O)C(=O)NC(C(=O)O)c1ccccc1)OCC1OC(n2ccc(N)nc2=O)C(O)C1O (stereo not drawn) | 48.7 µM | > 75 µM | 5.22 µM | > 75 µM | > 75 µM | > 75 µM | 3.31 µM | > 47.3 µM | 12.6 µM | > 75 µM | 10.5 µM | > 75 µM | 17.8 µM | > 75 µM | 33.7 µM | > 75 µM | 49.8 µM | > 75 µM | 26.2 µM | > 75 µM
CC(=O)OC1CCC2(C)C(CCC3C2CC(=O)C2(C)C3CC(N3CC3)C2C(C)=O)C1 (stereo not drawn) | – | 40.1 µM | – | > 100 µM | – | 70.6 µM | – | 56.4 µM | – | 36.5 µM | – | 29.8 µM | – | 94.2 µM | – | 97.3 µM | – | 27.1 µM | – | > 100 µM
O=C(CC1(O)C(=O)N(Cc2ccccc2)c2ccc(Cl)cc21)c1ccc(C(=O)NCC2CCC3(CC2)OOC2(CCCCC2)OO3)cc1 (stereo not drawn) | 2.42 µM | 15 µM | 1.3 µM | 4.29 µM | 0.573 µM | 2.43 µM | 0.197 µM | 0.444 µM | 0.209 µM | 0.537 µM | 0.169 µM | 0.373 µM | 0.271 µM | 0.833 µM | 0.197 µM | 0.419 µM | 1.4 µM | 3.67 µM | 8.35 µM | > 100 µM
O=c1c2ccc(S(=O)(=O)c3ccc4c(=O)n5c6ccccc6nc5c5cccc3c45)c3cccc(c32)c2nc3ccccc3n12 | – | 50.5 µM | – | > 100 µM | – | > 100 µM | – | 18.2 µM | – | > 100 µM | – | > 100 µM | – | > 100 µM | – | > 100 µM | – | > 100 µM | – | > 100 µM
O=C(Nc1ccc(Cc2ccccc2)cc1)Nc1nn(C(=O)Nc2ccc(Cc3ccccc3)cc2)c2ccccc12 | > 100 µM | > 100 µM | > 100 µM | > 100 µM | > 100 µM | > 100 µM | > 100 µM | > 100 µM | > 100 µM | > 100 µM | > 100 µM | > 100 µM | > 100 µM | > 100 µM | > 100 µM | > 100 µM | 75.6 µM | > 100 µM | > 100 µM | > 100 µM
CC1=CC(C)=NN=C(N)N1S(=O)(=O)c1cc(C)c(Cl)cc1SCc1ccccc1 | 17.8 µM | > 100 µM | 7.2 µM | > 100 µM | 7.86 µM | > 100 µM | 46 µM | > 100 µM | 49.1 µM | > 100 µM | 7.78 µM | > 100 µM | 8.71 µM | > 100 µM | 22.6 µM | > 100 µM | 35.1 µM | > 100 µM | 88.5 µM | > 100 µM
CCN(CC)CCCC(C)Nc1ccnc2cc(Cl)ccc12 (stereo not drawn) | 55.9 µM | > 100 µM | 25.6 µM | > 100 µM and 42 µM | 57.9 µM | > 100 µM | > 100 µM | > 100 µM | – | 48.7 µM and 35.7 µM | > 100 µM | > 100 µM | – | > 100 µM | 22.3 µM | 75.6 µM and > 100 µM | – | > 100 µM | 39.9 µM | > 100 µM and 42.3 µM
COc1cccc(/C=C/C(=O)c2ccc(SC)cc2)c1OC | 20.8 µM | 40.5 µM | 4.35 µM | 15.4 µM | 10.4 µM | 30.3 µM | – | – | 16.7 µM | 34.7 µM | 19.2 µM | 38.9 µM | 16.2 µM | 38.5 µM | 16.4 µM | 32 µM | 20.2 µM | 42.3 µM | 20 µM | 36.7 µM
CSc1c(C2=C(c3cn(C)c4ccccc34)C(=O)NC2=O)c2ccccc2n1C | 0.747 µM | 11.5 µM | 1.04 µM | > 25 µM | 0.755 µM | > 25 µM | 1.39 µM | > 25 µM | 1.21 µM | > 25 µM | 0.367 µM | 1.59 µM | 1.02 µM | > 25 µM | 0.629 µM | 2 µM | 1.51 µM | > 25 µM | 1.85 µM | > 25 µM
O=C1/C=C/[C@@H](O)[C@@H]2C[C@@H](O)C[C@H]2/C=C/CCC[C@H](CCc2cccc3ccccc23)O1 | 0.0609 µM | 12.1 µM | 0.12 µM | 0.283 µM | 0.326 µM | 10.5 µM | 0.267 µM | 12.1 µM | 0.036 µM | 0.245 µM | 0.234 µM | 0.581 µM | 0.0389 µM | 1.86 µM | 0.0395 µM | 1.83 µM | 0.0365 µM | 12.3 µM | 0.0313 µM | 0.163 µM
O=C1C(=C(C(F)(F)Cl)C(F)(F)Cl)C2CCC1C2 (stereo not drawn) | – | 4 µM | – | 3.61 µM | – | 3.97 µM | – | 3.62 µM | – | 3.2 µM | – | 0.56 µM | – | 5.18 µM | – | > 6.36 µM | – | > 6.62 µM | – | 3.96 µM
CSC(=NC#N)S/C=C/C(=O)c1ccccc1 | 29.2 µM | 70.4 µM | 17.9 µM | 34.1 µM | 34.8 µM | > 100 µM | – | – | 31.2 µM | 74.7 µM | 19.8 µM | 47.8 µM | 31.3 µM | 99.3 µM | 31.5 µM | > 100 µM | 43.8 µM | > 100 µM | 58 µM | > 100 µM
Cc1ccc2oc(=O)cc(/C(=C3/C=CC=N3)c3ccc[nH]3)c2c1 | 0.346 µM | 1.58 µM | 0.375 µM | 1.79 µM | 0.298 µM | 10.1 µM | 0.468 µM | 6.5 µM | 0.782 µM | 3.82 µM | 1.53 µM | 5.22 µM | 0.314 µM | 3.77 µM | 0.271 µM | 0.707 µM | 0.526 µM | 6.73 µM | 0.611 µM | 3.46 µM
CCCCOC(=O)c1ccc(N)cc1 | 77.6 µM | > 100 µM | 90 µM | > 100 µM | 8 µM | > 100 µM | > 100 µM | > 100 µM | > 100 µM | > 100 µM | 54.1 µM | > 100 µM | 92.4 µM | > 100 µM | 68 µM | > 100 µM | 71.1 µM | > 100 µM | > 100 µM | > 100 µM
O=c1[nH]c2ccccc2c2nc3ccccc3n12 | – | > 100 µM | – | > 100 µM | – | > 100 µM | – | > 100 µM | – | 72.7 µM | – | 28.2 µM | – | > 100 µM | – | > 100 µM | – | > 100 µM | – | –
